The values below come from patent US20090069301A1, “Acridine and Quinoline Derivatives as Sirtuin Modulators” (Sirtris Pharmaceuticals, Inc., priority 2005, published 2009).

For one assay, the target named is T1, SIRT1 (Homo sapiens, UniProt Q96EB6).
T1 sequence (Q96EB6 1-747): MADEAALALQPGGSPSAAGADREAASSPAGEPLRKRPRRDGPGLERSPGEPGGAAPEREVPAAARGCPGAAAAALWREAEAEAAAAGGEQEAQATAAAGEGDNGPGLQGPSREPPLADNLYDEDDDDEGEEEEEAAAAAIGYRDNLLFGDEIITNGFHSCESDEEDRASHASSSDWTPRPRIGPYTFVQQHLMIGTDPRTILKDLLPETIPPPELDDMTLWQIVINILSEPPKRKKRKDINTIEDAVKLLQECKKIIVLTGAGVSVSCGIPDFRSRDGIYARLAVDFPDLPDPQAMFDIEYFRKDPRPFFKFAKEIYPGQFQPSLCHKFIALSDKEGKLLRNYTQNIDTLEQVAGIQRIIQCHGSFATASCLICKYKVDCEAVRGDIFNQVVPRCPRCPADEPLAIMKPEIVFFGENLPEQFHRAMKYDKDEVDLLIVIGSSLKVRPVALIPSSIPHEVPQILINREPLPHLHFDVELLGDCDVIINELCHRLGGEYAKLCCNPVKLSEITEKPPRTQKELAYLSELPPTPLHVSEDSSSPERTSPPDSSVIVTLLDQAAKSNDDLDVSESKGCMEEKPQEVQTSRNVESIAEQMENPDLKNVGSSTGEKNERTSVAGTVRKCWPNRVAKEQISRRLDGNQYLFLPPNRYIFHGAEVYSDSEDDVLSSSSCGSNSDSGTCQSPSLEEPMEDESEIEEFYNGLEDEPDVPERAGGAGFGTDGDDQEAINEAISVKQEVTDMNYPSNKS
The assay is described as follows: Fluorescence polarization or mass spectrometry based assay to identify modulators of SIRT1 activity (p53-based peptide deacetylation).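 Further: recombinant His-tagged human SIRT1 deacetylating p53-derived acetylated peptide, detected by fluorescence polarization after trypsin cleavage, signal inversely tracking deacetylase activity, compared against activity without test compound.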 It is filed as biochemical. Particulars: activation of SIRT1, Table 4; read-out: ED50 (the source's name). Background: Polarisation of emitted light reports the rotation of a fluorescent probe.

The next assay concerns the target T2, human SIRT3 (Homo sapiens, UniProt Q9NTG7).
T2 construct: corresponded to amino acid residues 102-399 of human SIRT3 with an N-terminal His-tag; His-tag (N); made in house; host or cells: E. coli
T2 sequence (Q9NTG7 102-399): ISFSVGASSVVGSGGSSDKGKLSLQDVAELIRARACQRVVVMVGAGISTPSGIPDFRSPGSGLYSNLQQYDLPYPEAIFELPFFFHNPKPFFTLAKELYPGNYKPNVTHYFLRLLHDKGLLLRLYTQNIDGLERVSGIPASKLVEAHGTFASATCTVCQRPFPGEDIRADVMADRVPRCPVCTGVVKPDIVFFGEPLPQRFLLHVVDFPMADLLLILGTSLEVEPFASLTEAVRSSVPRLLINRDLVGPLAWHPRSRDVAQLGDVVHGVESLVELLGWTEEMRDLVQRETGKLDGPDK
Briefly: Fluorescence polarization assay to identify modulators of SIRT3 activity (Histone H4-based peptide deacetylation). It is filed as biochemical. The following applies: activation of SIRT3, Table 6; read-out: ED50 (the source's name). An excerpt: A fluorescence polarization assay was used to identify modulators of SIRT3 activity. The same assay may be used to identify modulators of any sirtuin protein. The assay utilizes a peptide substrate based on a fragment of Histone H4, a known sirtuin deacetylation target. The substrate contains a peptide having 14 amino acid residues as follows: Biotin-GASSHSK(Ac)VLK(MR121) (SEQ ID NO: 3) wherein K(Ac) is an acetylated lysine residue. The peptide is labeled with the fluorophore MR121 (excitation 635 nm/emission 680 nm) at the C-terminus and biotin at the N-terminus.
The peptide substrate is exposed to a sirtuin protein in the presence of NAD^+ to allow deacetylation of the substrate and render it sensitive to cleavage by trypsin. […] The fluorescence polarization signal observed for the full length peptide substrate bound to streptavidin is higher than the fluorescence polarization signal observed for the released MR121 C-terminal fragment. Therefore, the fluorescence polarization obtained is inversely proportional to the level of deacetylation (e.g., the signal is inversely proportional to the activity of the sirtuin protein). Results are read on a microplate fluorescence polarization reader (Molecular Devices Spectramax MD) with appropriate excitation and emission filters. […]

Regarding `O=C(Nc1ccccc1N1CCOCC1)c1cc(-c2ccco2)nc2ccccc12` [Compound 8], the EC50 on SIRT1 and on human SIRT3 was less than 50 µM throughout.
